According to PMC5587286, “Direct versus indirect actions of ghrelin on hypothalamic NPY neurons” (PLoS ONE, 2017):

Legend:
[1] = biological target: growth hormone secretagogue receptor (mouse (endogenous in NPY-GFP neurons)) (UniProt Q99P50)
[2] = system: NPY-GFP neurons in hypothalamic slices; type: cell-based, mice
isolated SUR1-/- neurons = type: cell-based, mice

Chain of growth hormone secretagogue receptor (mouse (endogenous in NPY-GFP neurons)) (Q99P50 whole entry): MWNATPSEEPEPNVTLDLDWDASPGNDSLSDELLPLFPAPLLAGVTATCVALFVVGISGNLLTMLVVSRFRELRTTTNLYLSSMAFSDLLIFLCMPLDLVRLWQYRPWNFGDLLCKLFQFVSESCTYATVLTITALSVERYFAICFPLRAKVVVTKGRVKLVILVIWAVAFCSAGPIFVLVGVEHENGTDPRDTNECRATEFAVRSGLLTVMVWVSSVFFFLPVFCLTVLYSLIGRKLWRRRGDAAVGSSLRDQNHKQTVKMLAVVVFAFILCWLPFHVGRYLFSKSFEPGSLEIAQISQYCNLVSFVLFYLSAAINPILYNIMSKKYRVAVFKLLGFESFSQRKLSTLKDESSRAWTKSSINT

In the case of Acylated ghrelin (peptide), the EC50 of the rise of [Ca2+]c (fura-2) in isolated NPY-GFP neurons, from averages of the peak heights at each ghrelin concentration [1] is reported as 0.11 nM.
In the case of `CCCCCCCC(=O)OC[C@H](NC(=O)[C@H](CO)NC(=O)CN)C(=O)N[C@@H](Cc1ccccc1)C(=O)N[C@@H](CC(C)C)C(=O)N[C@@H](CO)C(=O)N1CCC[C@H]1C(=O)N[C@@H](CCC(=O)O)C(=O)N[C@@H](Cc1c[nH]cn1)C(=O)N[C@@H](CCC(N)=O)C(=O)N[C@@H](CCCNC(=N)N)C(=O)N[C@H](C(=O)N[C@@H](CCC(N)=O)C(=O)N[C@@H](CCC(N)=O)C(=O)N[C@@H](CCCNC(=N)N)C(=O)N[C@@H](CCCCN)C(=O)N[C@@H](CCC(=O)O)C(=O)N[C@@H](CO)C(=O)N[C@@H](CCCCN)C(=O)N[C@@H](CCCCN)C(=O)N1CCC[C@H]1C(=O)N1CCC[C@H]1C(=O)N[C@@H](C)C(=O)N[C@@H](CCCCN)C(=O)N[C@@H](CC(C)C)C(=O)N[C@@H](CCC(N)=O)C(=O)N1CCC[C@H]1C(=O)N[C@@H](CCCNC(=N)N)C(=O)O)C(C)C` [ghrelin], the “average IR decrease” value [2] is reported as -108 ± 60 MΩ, the “ghrelin-induced changes in MP and IR in the presence of TTX” value [2] is reported as “persistent, albeit diminished” and the “neurons depolarized due to decreases in IR” value [2] is reported as ~ 70%. The “neurons depolarized with increases in IR” value [2] was 7/22, the “average ΔMP (MP +ghrelin minus MP w/o ghrelin)” value ([2]; SD) was 3.6 ± 1.7 mV and the “effect on [Ca2+]c” value (isolated SUR1-/- neurons) was “reversibly stimulated an increase in [Ca^2+]c in a subset of isolated SUR1^-/- neurons”.
In the case of `CC1=NS(=O)(=O)c2cc(Cl)ccc2N1` [diazoxide], the “stimulation of an increase in [Ca2+]c” value (isolated SUR1-/- neurons; diazoxide 200 μM, neurons from SUR1-/- mice) is reported as “not”.
In the case of `COc1ccc(Cl)cc1C(=O)NCCc1ccc(S(=O)(=O)NC(=O)NC2CCCCC2)cc1` [glibenclamide], the “effect on ghrelin action” value (isolated SUR1-/- neurons; glibenclamide 1 μM, ghrelin 200 pM, neurons from SUR1-/- mice) is reported as “no significant effect on ghrelin action”.
With `NC1=N[C@H](O)[C@H]2[C@H]3O[C@]4(O)O[C@@H]([C@@H](O)[C@@]2(N1)[C@@H]4O)[C@]3(O)CO` [TTX, tetrodotoxin] the “effect on ghrelin-induced changes in MP and IR” value [2] was “reduces these ghrelin-induced changes in both MP and IR”.
